Source: article PMC6851853, “Characterization of P. falciparum dipeptidyl aminopeptidase 3 specificity identifies differences in amino acid preferences between peptide‐based substrates and covalent inhibitors” (The Febs Journal, 2019)

How the values were obtained:
DPAP1 = molecular target: T1, DPAP1 (Plasmodium falciparum, UniProt Q8IIJ9); experiment: biochemical; parameters: species or system P. falciparum parasite lysate; continuous fluorogenic assay, time-dependent inactivation of DPAP1 in diluted parasite lysate, Pro-Arg-AMC 20 uM; conditions: for kinact: read-out: DPAP1 / k inact ·10^3; for kinact/KI: read-out: DPAP1 / k inact/K i ·10^−3 (M ^−1·s^−1)
T1 sequence (Q8IIJ9 28-209): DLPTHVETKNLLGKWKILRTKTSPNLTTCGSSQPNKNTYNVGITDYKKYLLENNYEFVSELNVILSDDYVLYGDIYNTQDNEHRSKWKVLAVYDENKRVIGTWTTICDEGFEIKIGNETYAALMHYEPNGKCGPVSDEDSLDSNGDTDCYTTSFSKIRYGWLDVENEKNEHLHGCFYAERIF
T1 sequence (Q8IIJ9 370-599): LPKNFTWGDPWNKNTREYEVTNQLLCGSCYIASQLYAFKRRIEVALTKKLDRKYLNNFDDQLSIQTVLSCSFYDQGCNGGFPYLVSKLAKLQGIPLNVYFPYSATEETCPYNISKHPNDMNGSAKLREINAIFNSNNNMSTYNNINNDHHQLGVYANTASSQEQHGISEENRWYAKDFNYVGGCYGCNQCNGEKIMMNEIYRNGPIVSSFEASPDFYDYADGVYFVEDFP
T1 sequence (Q8IIJ9 600-700): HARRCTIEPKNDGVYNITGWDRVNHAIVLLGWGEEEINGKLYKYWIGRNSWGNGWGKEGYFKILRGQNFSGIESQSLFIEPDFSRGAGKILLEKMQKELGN
Experimental: (§1) Inhibition of DPAP1 was directly measured in parasite lysates diluted 100‐fold in assay buffer using the DPAP1‐selective substrate Pro‐Arg‐AMC 42; 0.2 nM of […] was used for these inhibition studies. Note that because DPAP1 inhibition was directly measured in parasite lysates, inhibitors might have been partially inactivated through the action of aminopeptidases present in the lysates during the course of the assay. Therefore, the potency of the inhibitors might have been underestimated. […] The data were analysed according to the irreversible inhibition model shown in Eqn. 1. First, the progress curves (fluorescent units vs. time) were fitted to Eqn. 5, where F is the measured fluorescence at time t, F 0 the initial fluorescence, V 0 the initial turnover rate, and k obs the observed […] rate constant of inhibition measured at each inhibitor concentration 64.

CatC (bovine) = molecular target: T2, CatC (bovine) (Bos taurus, UniProt Q3ZCJ8); experiment: biochemical; parameters: continuous fluorogenic assay, time-dependent inactivation of 0.2 nM CatC, Gly-Arg-AMC 15 uM; conditions: for kinact: read-out: CatC / k inact ·10^3; for kinact/KI: read-out: CatC / k inact/K i ·10^−3 (M ^−1·s^−1)
T2 construct: gene CTSC; native, purified to homogeneity from bovine spleen
T2 sequence (Q3ZCJ8 25-134): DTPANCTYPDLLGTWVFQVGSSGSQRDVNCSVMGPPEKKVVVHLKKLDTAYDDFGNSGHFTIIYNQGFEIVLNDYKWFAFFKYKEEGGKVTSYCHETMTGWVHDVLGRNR
T2 sequence (Q3ZCJ8 231-394): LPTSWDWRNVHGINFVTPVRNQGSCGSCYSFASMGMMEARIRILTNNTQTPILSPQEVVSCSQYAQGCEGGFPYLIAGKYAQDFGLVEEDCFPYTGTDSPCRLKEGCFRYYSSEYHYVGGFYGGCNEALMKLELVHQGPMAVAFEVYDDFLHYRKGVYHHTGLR
T2 sequence (Q3ZCJ8 395-463): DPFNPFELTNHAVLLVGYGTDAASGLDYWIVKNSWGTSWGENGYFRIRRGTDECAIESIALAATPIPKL
Experimental: as §1

DPAP3 [1] = molecular target: T3, DPAP3 (Plasmodium falciparum, UniProt Q8I1Y2); experiment: cell-based; parameters: native enzyme in live parasites (mature schizonts); species or system P. falciparum mature schizonts in red blood cells; competitive activity-based probe FY01 labelling in intact parasites, in-gel fluorescence densitometry; conditions: live parasites, 30 min pretreatment
Experimental: Live parasites were treated with different concentrations of inhibitor for 30 min, and the residual level of DPAPs and FPs activities were labelled with FY01 and quantified by densitometry (Fig. 6A). […] Compounds with a P2 Trp or Tyr(NO2) are highly specific for DPAP3 in intact parasites. […] Inhibitors need to cross four membranes to reach DPAP3: the RBC, parasitophorous vacuole and parasite plasma membranes, plus the membrane of the apical organelle where DPAP3 resides 21. (The parasitophorous vacuole is a membrane‐bound structure within which the parasite grows and multiplies isolated from the RBC cytosol.) However, crossing of the parasitophorous vacuole membrane is not likely to be a limiting factor to reach DPAP3 since this membrane is generally permeable to small molecules. It is also likely that the apparent increased potency of Trp‐hPG‐VS in live parasites might be due to its accumulation into the DPAP3 acidic organelle via protonation of its free amine. However, we predict that this lysosomotropic effect likely occurs for all DPAP inhibitors presented here.  Figure 6 Selective inhibition of DPAP1 or DPAP3 in live parasites. Intact mature schizonts were pretreated for 30 min with increasing concentrations of inhibitor followed by 1 h treatment with FY01. Samples were then run in an SDS/PAGE gel and the in‐gel fluorescence measured using a fluorescence scanner. (A) Representative gel images obtained for each of the inhibitors. Fluorescent bands corresponding to the different cysteine proteases labelled by the probe are indicated with arrowheads (DPAP3, red; FPs, green; DPAP1, blue). (B) The fluorescence intensity of each of the indicated bands was quantified by densitometry using ImageJ, and the fluorescence values normalized to the DMSO control. […] Three technical replicates were performed; dose responses for a representative replicate are shown.
Target sequence in this assay (Q8I1Y2 entry or part of it): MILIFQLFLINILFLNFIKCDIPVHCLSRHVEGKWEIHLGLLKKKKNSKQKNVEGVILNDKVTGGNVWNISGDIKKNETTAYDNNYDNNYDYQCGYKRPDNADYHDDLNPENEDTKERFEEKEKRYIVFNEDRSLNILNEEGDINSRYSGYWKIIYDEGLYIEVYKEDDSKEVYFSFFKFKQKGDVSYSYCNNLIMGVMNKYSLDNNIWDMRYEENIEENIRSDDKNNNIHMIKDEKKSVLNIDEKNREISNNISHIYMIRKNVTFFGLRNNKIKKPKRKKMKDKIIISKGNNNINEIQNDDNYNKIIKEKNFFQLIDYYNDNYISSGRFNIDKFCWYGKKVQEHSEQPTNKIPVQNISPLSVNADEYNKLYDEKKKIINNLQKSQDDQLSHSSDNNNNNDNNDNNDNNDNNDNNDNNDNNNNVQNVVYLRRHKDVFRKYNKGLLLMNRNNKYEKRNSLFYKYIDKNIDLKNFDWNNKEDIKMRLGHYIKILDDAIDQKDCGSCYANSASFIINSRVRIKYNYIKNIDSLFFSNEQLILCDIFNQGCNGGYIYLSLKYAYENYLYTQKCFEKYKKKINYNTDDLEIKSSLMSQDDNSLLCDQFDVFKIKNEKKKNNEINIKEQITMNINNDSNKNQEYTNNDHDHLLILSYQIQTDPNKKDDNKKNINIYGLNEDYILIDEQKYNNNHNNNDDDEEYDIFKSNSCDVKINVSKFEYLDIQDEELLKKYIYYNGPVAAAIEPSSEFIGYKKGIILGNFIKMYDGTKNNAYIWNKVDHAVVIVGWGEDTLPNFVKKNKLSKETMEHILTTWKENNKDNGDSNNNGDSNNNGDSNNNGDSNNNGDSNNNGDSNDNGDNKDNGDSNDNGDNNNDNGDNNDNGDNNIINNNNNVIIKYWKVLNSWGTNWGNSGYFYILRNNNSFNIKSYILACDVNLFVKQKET

DPAP3 [2] = molecular target: T3, DPAP3; experiment: biochemical; parameters: gene PF3D7_0404700; recombinant, baculovirus/SF9 insect cells, purified from culture supernatant by ion exchange, Ni-NTA and size exclusion; active-site titrated; continuous fluorogenic assay, time-dependent inactivation of 0.2 nM recombinant DPAP3, Met-nLeu(o-Bzl)-ACC 2.2 uM; conditions: for kinact: read-out: DPAP3 / k inact ·10^3; for kinact/KI: read-out: DPAP3 / k inact/K i ·10^−3 (M ^−1·s^−1)
Experimental: The data were analysed according to the irreversible inhibition model shown in Eqn. 1. First, the progress curves (fluorescent units vs. time) were fitted to Eqn. 5, where F is the measured fluorescence at time t, F 0 the initial fluorescence, V 0 the initial turnover rate, and k obs the observed […] rate constant of inhibition measured at each inhibitor concentration 64. […] The inhibition constants are reported in Fig. 3C and Table 2 (See also Fig. S2 for representative fits). Only one inhibitor, containing an amino‐1‐methyl‐benzyl (Amb) group in P2, was not able to inhibit DPAP3 in a time‐dependent manner under our assay conditions (Fig. 3D). This is probably due to the fact that this extended and rigid P2 AA (Fig. 3E) might prevent proper positioning of the [compound left out] group into the active site of DPAP3 to allow covalent modification of the catalytic cysteine. For this compound, a K i value for reversible inhibition was measured.
Target sequence in this assay (Q8I1Y2 entry or part of it): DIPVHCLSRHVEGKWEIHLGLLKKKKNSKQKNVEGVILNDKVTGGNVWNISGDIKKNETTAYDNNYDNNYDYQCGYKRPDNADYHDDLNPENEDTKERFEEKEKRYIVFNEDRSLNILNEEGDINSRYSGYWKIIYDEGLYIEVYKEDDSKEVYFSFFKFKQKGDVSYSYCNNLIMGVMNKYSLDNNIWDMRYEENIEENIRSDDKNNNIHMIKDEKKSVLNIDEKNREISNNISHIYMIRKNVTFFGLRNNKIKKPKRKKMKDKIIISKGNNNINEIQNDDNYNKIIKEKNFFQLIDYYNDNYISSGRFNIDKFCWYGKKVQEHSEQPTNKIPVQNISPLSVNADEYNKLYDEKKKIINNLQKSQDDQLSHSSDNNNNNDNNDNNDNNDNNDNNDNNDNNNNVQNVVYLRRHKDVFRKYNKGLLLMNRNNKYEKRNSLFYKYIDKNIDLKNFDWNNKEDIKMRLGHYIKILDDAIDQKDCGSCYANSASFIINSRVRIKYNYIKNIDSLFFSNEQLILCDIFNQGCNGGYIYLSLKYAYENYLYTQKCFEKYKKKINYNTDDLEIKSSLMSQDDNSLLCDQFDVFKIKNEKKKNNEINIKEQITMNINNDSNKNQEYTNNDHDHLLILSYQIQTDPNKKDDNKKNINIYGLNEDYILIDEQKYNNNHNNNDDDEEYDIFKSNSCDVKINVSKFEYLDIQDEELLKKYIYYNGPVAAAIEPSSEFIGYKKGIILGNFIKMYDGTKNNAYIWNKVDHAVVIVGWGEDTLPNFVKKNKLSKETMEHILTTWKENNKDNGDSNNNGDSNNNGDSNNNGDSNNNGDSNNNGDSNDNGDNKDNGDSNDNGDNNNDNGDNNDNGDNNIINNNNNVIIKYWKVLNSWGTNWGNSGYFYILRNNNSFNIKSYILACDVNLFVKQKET

SMILES | kinact (DPAP1) [s⁻¹] | kinact/KI (DPAP1) [M⁻¹ s⁻¹] | kinact (CatC (bovine)) [s⁻¹] | kinact/KI (CatC (bovine)) [M⁻¹ s⁻¹] | IC50 (DPAP3 [1]) [nM] | kinact (DPAP3 [2]) [s⁻¹] | kinact/KI (DPAP3 [2]) [M⁻¹ s⁻¹]
N[C@@H](Cc1c[nH]c2ccccc12)C(=O)N[C@H](/C=C/S(=O)(=O)c1ccccc1)CCCCOCc1ccccc1 [L‐Trp‐nLeu(o‐Bzl)‐VS] | 0.0022 ± 0.0001 | 5800 ± 600 | 0.00174 ± 3e-05 | 355000 ± 18000 | 760 ± 150 | 0.0032 ± 0.0003 | 826000 ± 193000
N[C@@H](Cc1ccc(O)c([N+](=O)[O-])c1)C(=O)N[C@H](/C=C/S(=O)(=O)c1ccccc1)CCCCOCc1ccccc1 [Tyr(NO2)‐nLeu(o‐Bzl)‐VS] | 0.0026 ± 0.0003 | 1100 ± 300 | 0.0029 ± 0.0002 | 380 ± 50 | 730 ± 170 | 0.0027 ± 0.0002 | 51000 ± 10000
N[C@H](C(=O)N[C@H](/C=C/S(=O)(=O)c1ccccc1)CCCCOCc1ccccc1)C1Cc2ccccc2C1 [Igl‐nLeu(o‐Bzl)‐VS] | 0.0041 ± 0.0002 | 860 ± 50 | 0.00148 ± 6e-05 | 135000 ± 14000 | – | 0.0056 ± 0.0004 | 35000 ± 4500
N[C@H](C(=O)N[C@H](/C=C/S(=O)(=O)c1ccccc1)CCc1ccccc1)C1Cc2ccccc2C1 [Igl‐hPhe‐VS] | 0.0027 ± 0.0001 | 500 ± 30 | 0.0058 ± 0.0003 | 18000 ± 3000 | – | 0.0021 ± 0.0007 | 205000 ± 22000
CCC[C@H](N)C(=O)N[C@H](/C=C/S(=O)(=O)c1ccccc1)CCc1ccccc1 [nVal‐hPhe‐VS] | 0.002 ± 0.0001 | 3.16e+06 ± 750000 | 0.0022 ± 0.0001 | 5.83e+06 ± 970000 | – | 0.0026 ± 0.0004 | 940000 ± 160000
N[C@H](Cc1c[nH]c2ccccc12)C(=O)N[C@H](/C=C/S(=O)(=O)c1ccccc1)CCc1ccccc1 [D‐Trp‐hPhe‐VS] | 0.0027 ± 0.0002 | 26 ± 1 | 0.0026 ± 0.0001 | 620 ± 70 | – | 0.0017 ± 0.0006 | 320 ± 80
O=C(N[C@H](/C=C/S(=O)(=O)c1ccccc1)CCCCOCc1ccccc1)[C@@H]1CCCCN1 [hPro‐nLeu(o‐Bzl)‐VS] | 0.0029 ± 0.0003 | 3.56e+06 ± 150000 | 0.00167 ± 3e-05 | 150000 ± 6000 | – | 0.002 ± 0.0001 | 53000 ± 6500
